ChEMBL document CHEMBL3272344, “Synthesis of 5-substituted aminomethyluracils via the Mannich reaction” (J Med Chem, 1976)
Active and inactive are the calls of the source. The calls are words filed in the database; no cut-off is given here.

Key:
[1] = test system: Mus musculus; assay: Toxicity in Plasmodium berghei infected mouse at 640 mg/kg; type: organism-based; parameters: dose 640 mg/kg; details: in vivo
[2] = test system: Plasmodium berghei; assay: Antimalarial activity against Plasmodium berghei infected in mouse at 640 mg/kg; type: functional, organism-based; parameters: dose 640 mg/kg
[3] = test system: Gallus gallus; assay: Toxicity in Plasmodium gallinaceum B infected chick at 120 mg/kg; type: organism-based; parameters: dose 120 mg/kg; details: chicken, in vivo
[4] = test system: Mus musculus; assay: Toxicity in mouse L1210 cells allografted mouse up to 400 mg/kg; type: organism-based; parameters: dose 400 mg/kg; details: in vivo
[5] = test system: L1210; assay: Antitumor activity against mouse L1210 cells allografted in mouse up to 400 mg/kg; type: functional, organism-based; parameters: dose 400 mg/kg
[6] = test system: Plasmodium gallinaceum; assay: Antimalarial activity against Plasmodium gallinaceum B infected in chick at 120 mg/kg; type: functional, organism-based; parameters: dose 120 mg/kg
[7] = test system: Mus musculus; assay: Toxicity in Plasmodium berghei infected mouse at 320 mg/kg; type: organism-based; parameters: dose 320 mg/kg; details: in vivo
[8] = test system: Plasmodium berghei; assay: Antimalarial activity against Plasmodium berghei infected in mouse at 320 mg/kg; type: functional, organism-based; parameters: dose 320 mg/kg
[9] = test system: Gallus gallus; assay: Toxicity in Plasmodium gallinaceum B infected chick at 160 mg/kg; type: organism-based; parameters: dose 160 mg/kg; details: chicken, in vivo
[10] = test system: Plasmodium gallinaceum; assay: Antimalarial activity against Plasmodium gallinaceum B infected in chick at 160 mg/kg; type: functional, organism-based; parameters: dose 160 mg/kg
[11] = test system: Plasmodium gallinaceum; assay: Antimalarial activity against Plasmodium gallinaceum B infected in chick at 100 mg/kg; type: functional, organism-based; parameters: dose 100 mg/kg
[12] = test system: Gallus gallus; assay: Toxicity in Plasmodium gallinaceum B infected chick at 100 mg/kg; type: organism-based; parameters: dose 100 mg/kg; details: chicken, in vivo

Row | Compound | Activity [1] | Activity [2] | Activity [4] | Activity [5] | Activity [7] | Activity [8] | also measured
1 | Cc1cccc(NCc2c[nH]c(=O)[nH]c2=O)c1 | Non-toxic | inactive | – | – | – | – | –
2 | O=c1[nH]cc(CNc2ccccc2)c(=O)[nH]1 | Non-toxic | inactive | Non-toxic | inactive | – | – | Activity [3]: Non-toxic; Activity [6]: inactive
3 | O=c1[nH]cc(CNc2ccc(Cl)cc2)c(=O)[nH]1 | – | – | – | – | Non-toxic | inactive | –
4 | CN(C)Cc1c[nH]c(=O)[nH]c1=O | – | – | Non-toxic | inactive | – | – | –
5 | O=c1[nH]cc(CNC2CCCCC2)c(=O)[nH]1 | – | – | Non-toxic | inactive | Non-toxic | inactive | Activity [9]: Non-toxic; Activity [10]: inactive
6 | COc1ccc(NCc2c[nH]c(=O)[nH]c2=O)cc1 | – | – | – | – | Non-toxic | inactive | Activity [9]: Non-toxic; Activity [10]: inactive
7 | CCCCNCc1c[nH]c(=O)[nH]c1=O | Non-toxic | inactive | – | – | – | – | Activity [11]: inactive; Activity [12]: Non-toxic
